{
  "source": "patent US20260151398A1",
  "about": "“COMPOUNDS FOR REDUCING CHOLESTEROL AND TREATING LIVER AND KIDNEY DISEASE” (McMaster University, priority 2021, published 2026)",
  "key": {"[1]": {"test_system": "ER stress markers (GRP78, ATF4, pPERK, IRE1α, sXBP1, ATF6)", "assay": "ER stress / UPR readouts in hepatocytes", "type": "cell-based, human", "protocol": "(§1) Cells were washed in phosphate-buffered saline (PBS), lysed in 4× SDS-PAGE lysis buffer and separated on 7-10% polyacrylamide gels in denaturing conditions. Gels were transferred to nitrocellulose membranes using the BioRad mini trans-blot system, blocked in 5% skim milk in tris-buffered saline (TBS) for 1 h and incubated in primary antibody overnight for 16 h at 4° C. Membranes were then exposed to horse radish peroxidase conjugated secondary antibodies and visualized using EZ-ECL chemiluminescent reagent (Froggabio). Band intensities were quantified using ImageJ software ([…]) against membranes reprobed for housekeeping proteins.\nFollowing treatment, live cells were incubated in complete DMEM containing 5 μM Thioflavin-T (ThT; Thermofisher Scientific) for 15 minutes. Cells were then fixed in 4% paraformaldehyde and mounted with permafluor. Fluorescent staining was visualized using the EVOS FL colour system at either 20 or 40× magnification.\n(§2) RNA purification/isolation was performed using RNeasy mini kits (Qiagen) and normalized to 2 μg RNA using a NanoDrop® spectrophotometer. Samples were then reverse transcribed into cDNA using Superscript Vilo cDNA Synthesis kit (Thermofisher Scientific). Real-time PCR was executed with Fast SYBR Green (Thermo Fisher Scientific) using the ΔΔct method on the ViiA7 real-time PCR platform (Thermofisher Scientific).\nBecause ER Ca^2+ depletion induces a compensatory unfolded protein response (UPR), it was also postulated that CF may attenuate UPR marker expression by increasing ER Ca^2+ levels. […] Reactive oxygen species production, a process known to occur during conditions of ER stress, was also attenuated by CF (FIG. 9 H). […] While increasing the protein binding ability of chaperones, such as GRP78, CF also attenuates SREBP2-driven gene expression (FIG. 7 L)."}, "[2]": {"test_system": "PCSK9", "assay": "PCSK9 expression in hepatocytes (immunoblot, real-time PCR)", "type": "cell-based, human, mouse", "protocol": "(§3) HuH7 and HepG2 cells were routinely grown in complete Dulbecco's Modified Eagle's Medium (Gibco, Thermofisher Scientific) supplemented with 10% fetal bovine serum (Sigma-Aldrich) and 100 U/ml of penicillin and streptomycin (Sigma-Aldrich). […] All cell treatments were carried out for 24 h unless otherwise stated. Cells were transfected with a cocktail consisting of plasmid DNA (1 μg), X-tremeGENE HP (3 μl; Thermofisher Scientific) and opti-MEM (100 μl; Thermofischer Scientific) per 1 ml complete medium containing plated cells. Human PCSK9 was overexpressed using the bicistronic pIRES-EGFP plasmid; calnexin using the mPA-GFP-N1 plasmid. To block the expression of GRP78 and CD36, siGENOME smartpool siRNA was purchased from GE Dharmacon (M-008198-02 and L-010206-00-0005 respectively) and transfected using lipofectamine RNAiMAX as per manufacturer's protocol.\nas §1, §2\nCultured immortalized hepatocytes known to express and secrete PCSK9 (Lebeau, P., et al., 2017), including HuH7 and HepG2 cells, as well as primary mouse- and human-hepatocytes (PMH and PHH, respectively), were treated with CF for 24 h and assessed for PCSK9 expression via immunoblots and real-time PCR (FIG. 1 A to D). […] Given that sterol deprivation represents another well-established promoter of SREBP2 activation (Lebeau, P., et al., 2017), cells were also treated with CF in the presence and absence of U18666A (U18) that depletes intracellular sterols. […] Next, HepG2 cells were treated with an increasing dose of CF."}, "[3]": {"test_system": "SREBP2", "assay": "SREBP2 expression and activation in hepatocytes (real-time PCR, SRE-GFP reporter, immunoblot, immunofluorescence)", "type": "cell-based, human, mouse", "details": "for activation and nuclear localization of SREBP2: immunoblots of whole-cell lysates", "protocol": "as §1\nCells were plated in 4-well chamber slides and incubated in complete DMEM for 24 h and exposed to treatments 24 h later for an additional 24 h. Cells were fixed with 4% paraformaldehyde for 30 minutes and washed with either non-permeabilizing, or permeabilizing PBS containing 0.025% Triton-X. Cells were then blocked with 1% bovine serum albumin (BSA) for 30 minutes and stained with anti-GFP antibody for 1 h in PBS containing 1% BSA. Afterwards, cells were washed and incubated with Alexa 488 fluorescently-labelled secondary antibodies (Thermofisher Scientific), as well as the DAPI nuclear stain. Slides were then mounted with permafluor and visualized using the EVOS FL colour imaging system at either 20 or 40× magnification.\nas §2\nTherefore, the effect of CF on TG-; induced SREBP2 activation was examined. […] SREBP2 activity was then examined at the protein level in HuH7 cells transfected with a plasmid encoding GFP driven by the sterol regulatory element (SRE-GFP; FIG. 2E to G). […] GFP expression was also visualized via immunofluorescent staining and quantified using ImageJ Software."}, "[4]": {"test_system": "PCSK9", "assay": "PCSK9 secretion from cultured and primary hepatocytes (ELISA of medium)", "type": "cell-based, human, mouse", "details": "for PCSK9 secretion with Ca2+-modulating agents: ELISA of medium", "protocol": "as §3\nSecreted PCSK9 levels were assessed directly in cell culture medium of cells grown in FBS-free medium for 24 h or in the serum isolated from either mice or human subjects. Mouse PCSK9 was measured using the Quantikinine® ELISA kit (#MCP900, R&D Systems) and human PCSK9 using the PCSK9 Quantikinine® ELISA kit (#DCP900, R&D Systems). Serum ApoB levels were also quantified using ELISAs (#DAPB00, R&D Systems). Serum samples were diluted as per manufacturer's instructions.\nAll animal studies were carried out in 8 h-fasted male wild-type, Pcsk9^−/− or Ampkβ1^−/− mice on the C57BL/6J background. CF (25-100 mg/kg-8 h) and CDN (50 mg/kg) treatments were administered via intraperitoneal injection unless specified otherwise. Primary mouse hepatocytes were isolated using a two-step process with EGTA ([…] in HEPES buffer, Sigma Aldrich) and collagenase (0.05% in HEPES buffer, Sigma Aldrich) in 12-week-old male mice on the C57BL/6J background. Cells were then washed, centrifuged, and plated following isolation in cell strainers. Hepatosure® 100-donor pooled primary human hepatocytes were purchased from Xenotech. Primary hepatocytes were regularly grown in William's E medium (Gibco, Thermo Fisher Scientific) containing 10% fetal bovine serum, 100 IU/ml penicillin, and 100 µg/ml streptomycin."}},
  "note": "“Also recorded” adds a separate entry of the source.",
  "data": [
    {"smiles": "Cc1ccc2cccc(NC(=O)c3ccc(OC(C)C)cc3)c2n1", "note": "[CDN]", "values": [
      {"measurement": "TG-induced GRP78 expression", "setting": "[1]; HuH7, with TG 100 nM", "result": "blocked TG-induced expression"},
      {"measurement": "SREBP2 and PCSK9 mRNA transcript level", "setting": "[2]; HuH7, ryanodine 10 μM, CDN 100 μM, 2 APB 50 μM, presence or absence of TG, 24 h", "result": "blocked SREBP2 and PCSK9 at the mRNA transcript level"},
      {"measurement": "activation and nuclear localization of SREBP2", "setting": "[3]", "result": "antagonized the activation and nuclear localization of SREBP2"},
      {"measurement": "PCSK9 secretion with Ca2+-modulating agents", "setting": "[4]", "result": "blocked PCSK9 secretion"}
    ]},
    {"smiles": "C/C=C(/C)C(=O)O[C@H]1C(C)=C2[C@H]([C@@H]1OC(=O)CCCCCCC)[C@@](C)(OC(C)=O)C[C@H](OC(=O)CCC)[C@@]1(O)[C@H]2OC(=O)[C@@]1(C)O", "note": "[TG, thapsigargin]", "values": [
      {"measurement": "GRP78 expression", "setting": "[1]; HuH7, TG 100 nM, CPA 10 μM", "result": "increased the expression of GRP78"},
      {"measurement": "PCSK9 and SREBP2 expression on ER Ca2+ depletion", "setting": "[2]; HuH7, TG 100 nM, CPA 10 μM", "result": "increased PCSK9 and SREBP2 expression"},
      {"measurement": "activation and nuclear localization of SREBP2", "setting": "[3]", "result": "opposite effect"},
      {"measurement": "PCSK9 secretion with Ca2+-modulating agents", "setting": "[4]", "result": "blocked PCSK9 secretion"}
    ]},
    {"smiles": "Cn1c(=O)c2c(ncn2C)n(C)c1=O", "note": "[caffeine, 1,3,7-Trimethylxanthine]", "values": [
      {"measurement": "thioflavin-T-stained misfolded protein aggregates and FLAG-sXBP1 expression", "setting": "[1]; HuH7", "result": "blocked the accumulation of thioflavin-T-stained misfolded protein aggregates"},
      {"measurement": "reactive oxygen species production", "setting": "[1]; HuH7, TG 100 nM", "result": "attenuated"},
      {"measurement": "expression of pPERK, IRE1α, sXBP1, ATF4 and ATF6", "setting": "[1]; HuH7, immunoblotting and real-time PCR, listed as CF", "result": "reduction in the expression of pPERK, IRE1α, sXBP1, ATF4 and ATF6; also recorded: protects against ER stress"},
      {"measurement": "mRNA of ER stress markers GRP78 and ATF4", "setting": "[1]; PHH, CF 200 μM", "result": "reduction in mRNA transcript levels of ER stress markers"},
      {"measurement": "TG-induced PCSK9 expression", "setting": "[2]; CF 200 μM with thapsigargin 100 nM, 24 h", "result": "attenuated PCSK9 expression"},
      {"measurement": "PCSK9 mRNA and secreted protein in presence of ActD", "setting": "[2]; HepG2 pre-treated with actinomycin D", "result": "failure of CF to block PCSK9 mRNA"},
      {"measurement": "PCSK9 and SREBP2 mRNA and secreted PCSK9 in presence of siGRP78", "setting": "[2]; HepG2 transfected with siGRP78", "result": "failed to attenuate PCSK9 and SREBP2 mRNA expression or secreted PCSK9 levels"},
      {"measurement": "PCSK9 protein and mRNA transcript levels", "setting": "[2]; HuH7, HepG2, PMH, PHH, 24 h, listed as CF", "result": "reduced protein and mRNA transcript levels of PCSK9; also recorded: blocks PCSK9 expression"},
      {"measurement": "U18-induced PCSK9 expression", "setting": "[2]; HuH7, CF 200 μM with U18 10 μM, 24 h", "result": "attenuated U18-induced PCSK9 expression"},
      {"measurement": "re-localization of SREBP2 to the nucleus", "setting": "[3]; HuH7, TG-treated, immunofluorescence", "result": "attenuated the re-localization of SREBP2"},
      {"measurement": "nuclear SREBP2 (nSREBP2) and SRE-driven GFP expression", "setting": "[3]; HuH7 transfected with SRE-GFP, presence and absence of TG, listed as CF", "result": "blocked the nuclear/activated isoform of SREBP2; also recorded: blocks SREBP2 activation"},
      {"measurement": "SREBP2 expression", "setting": "[3]; PMH, PHH, HepG2, real-time PCR", "result": "blocked the expression of SREBP2"},
      {"measurement": "activation and nuclear localization of SREBP2", "setting": "[3]", "result": "antagonized the activation and nuclear localization of SREBP2"},
      {"measurement": "PCSK9 secretion", "setting": "[4]; HuH7, HepG2, PMH, PHH, listed as CF", "result": "blocked the secretion of PCSK9; also recorded: blocks PCSK9 expression and secretion"}
    ]}
  ]
}
